In paper PMC3335202 (Journal of Medicinal Chemistry, 2012):

Key:
[1] = Chemical stability in phosphate buffer; assay type: physicochemical; conditions: 10 μM, phosphate buffer pH 7.4, up to 30 hours, HPLC
[2] = test system: Human embryonic stem cell H9 lines carrying MYH6-mCherry reporters; assay: hESC cardiogenesis assay; assay type: cell-based; conditions: hESCs, dose-response behaviour
[3] = test system: β-catenin-dependent canonical Wnt pathway; assay: Wnt inhibition assay; assay type: cell-based, human; conditions: Homo sapiens, HEK-293T, Wnt inhibition, HEK293T cells

degradation in phosphate buffer [1]	IC50 [3] [µM]	Structure (SMILES)	induction of cardiogenesis (class in words) [2]
No degradation was observed		CC(=O)c1ccccc1NC(=O)[C@H]1CC[C@H](N2C(=O)[C@@H]3[C@@H]4CC[C@@H](C4)[C@@H]3C2=O)CC1 [Compound 28, 4-(cis-endo-1,3-Dioxooctahydro-2H-4,7-methanoisoindol-2-yl)-N-(2-acetylphenyl)-trans-cyclohexyl carboxamide]	potent stimulators of cardiogenesis
No degradation was observed	~0.1	O=C1[C@@H]2[C@@H]3CC[C@@H](C3)[C@@H]2C(=O)N1[C@H]1CC[C@H](C(=O)Nc2cccnc2)CC1 [Compound 32, 4-(cis-endo-(1,3-Dioxooctahydro-2H-4,7-methanoisoindol-2-yl))-N-(pyridin-3-yl)-trans-cyclohexyl carboxamide]	functionally inactive as inducers of cardiogenesis
